In ChEMBL document CHEMBL1135887, “Substituted pentacyclic carbazolones as novel muscarinic allosteric agents: synthesis and structure-affinity and cooperativity relationships” (J Med Chem, 2002) one finds Cooperativity and Log 1/M data, which are given here for 10 molecules.

In test [1] the target is T1, Muscarinic acetylcholine receptor M4 (Homo sapiens) (UniProt P08173).
T1 sequence (whole entry): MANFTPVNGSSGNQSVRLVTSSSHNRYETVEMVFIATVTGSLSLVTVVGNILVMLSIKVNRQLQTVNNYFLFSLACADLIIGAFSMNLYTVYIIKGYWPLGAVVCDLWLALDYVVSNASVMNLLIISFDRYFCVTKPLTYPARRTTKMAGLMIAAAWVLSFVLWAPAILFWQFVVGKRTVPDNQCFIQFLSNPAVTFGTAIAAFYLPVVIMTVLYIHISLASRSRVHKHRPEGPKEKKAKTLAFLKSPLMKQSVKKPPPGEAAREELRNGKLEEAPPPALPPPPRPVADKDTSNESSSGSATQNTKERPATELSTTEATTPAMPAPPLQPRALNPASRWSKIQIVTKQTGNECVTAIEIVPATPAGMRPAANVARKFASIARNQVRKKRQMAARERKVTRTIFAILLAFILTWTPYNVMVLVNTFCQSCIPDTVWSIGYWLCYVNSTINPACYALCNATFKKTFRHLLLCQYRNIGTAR
As to the kind of experiment: Subtype selectivity and the cooperativity with N-methyl Scopolamine (NMS) at Muscarinic acetylcholine receptor M4.

Test [2] has as its target T2, Muscarinic acetylcholine receptor M1 (Homo sapiens) (UniProt P11229).
T2 sequence (whole entry): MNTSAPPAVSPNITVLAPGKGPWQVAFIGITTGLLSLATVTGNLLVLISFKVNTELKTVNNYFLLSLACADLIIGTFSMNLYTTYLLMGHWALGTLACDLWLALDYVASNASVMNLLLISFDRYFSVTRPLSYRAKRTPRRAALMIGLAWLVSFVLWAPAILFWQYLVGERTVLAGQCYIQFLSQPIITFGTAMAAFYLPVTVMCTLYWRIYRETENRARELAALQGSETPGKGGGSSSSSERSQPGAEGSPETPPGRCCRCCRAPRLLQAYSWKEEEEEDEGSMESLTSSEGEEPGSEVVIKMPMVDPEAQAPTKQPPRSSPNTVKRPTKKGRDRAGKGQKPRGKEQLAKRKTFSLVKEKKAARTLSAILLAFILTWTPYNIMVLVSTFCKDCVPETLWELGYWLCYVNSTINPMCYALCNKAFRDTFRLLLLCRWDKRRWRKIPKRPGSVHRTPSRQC
As to the kind of experiment: Logarithm of affinity (log 1/M) at the (N-methyl Scopolamine) NMS-liganded muscarinic acetylcholine receptor M1 by using semiquantitative equilibrium and off-rate assay.

The target in test [3] is T3, Muscarinic acetylcholine receptor M2 (Homo sapiens) (UniProt P08172).
T3 sequence (whole entry): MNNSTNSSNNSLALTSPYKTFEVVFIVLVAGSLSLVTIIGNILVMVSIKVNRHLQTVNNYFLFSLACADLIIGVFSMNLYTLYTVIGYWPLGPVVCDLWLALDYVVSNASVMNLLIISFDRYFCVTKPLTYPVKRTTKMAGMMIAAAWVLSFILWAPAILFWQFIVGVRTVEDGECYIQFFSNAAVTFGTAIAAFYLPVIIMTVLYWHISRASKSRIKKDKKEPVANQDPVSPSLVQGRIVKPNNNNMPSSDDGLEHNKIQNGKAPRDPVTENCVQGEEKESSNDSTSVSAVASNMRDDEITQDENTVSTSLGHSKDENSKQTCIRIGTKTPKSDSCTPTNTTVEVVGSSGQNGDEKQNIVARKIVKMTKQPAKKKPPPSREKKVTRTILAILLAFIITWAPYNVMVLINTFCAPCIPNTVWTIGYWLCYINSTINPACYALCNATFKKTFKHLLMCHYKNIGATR
As to the kind of experiment: Subtype selectivity and the cooperativity with N-methyl Scopolamine (NMS) at Muscarinic acetylcholine receptor M2.

Test [4] deals with Muscarinic acetylcholine receptor M3 (Homo sapiens) (UniProt P20309). As to the kind of experiment: Subtype selectivity and the cooperativity with N-methyl Scopolamine (NMS) at Muscarinic acetylcholine receptor M3; activity range is 0.81-1.19.
Test [5] has the same target. As to the kind of experiment: Logarithm of affinity (log 1/M) at the (N-methyl Scopolamine) NMS-liganded muscarinic acetylcholine receptor M3 by using semiquantitative equilibrium and off-rate assay.
The target is the same in test [6]. As to the kind of experiment: Logarithm of affinity (log 1/M) at the muscarinic acetylcholine receptor M3 by using semiquantitative equilibrium and off-rate assay.
Test [7] addresses T1, Muscarinic acetylcholine receptor M4 (Homo sapiens). As to the kind of experiment: Logarithm of affinity (log 1/M) at the (N-methyl Scopolamine) NMS-liganded muscarinic acetylcholine receptor M4 by using semiquantitative equilibrium and off-rate assay.
Test [8] concerns the target T2, Muscarinic acetylcholine receptor M1 (Homo sapiens). As to the kind of experiment: Subtype selectivity and the cooperativity with N-methyl Scopolamine (NMS) at Muscarinic acetylcholine receptor M1; activity value ranges from 0.81-1.19.
The target of test [9] is T3, Muscarinic acetylcholine receptor M2 (Homo sapiens). As to the kind of experiment: Logarithm of affinity (log 1/M) at the muscarinic acetylcholine receptor M2 by using semiquantitative equilibrium and off-rate assay.
Test [10] has the same target. As to the kind of experiment: Logarithm of affinity (log 1/M) at the (N-methyl Scopolamine) NMS-liganded muscarinic acetylcholine receptor M2 by using semiquantitative equilibrium and off-rate assay.
In test [11] the target is T1, Muscarinic acetylcholine receptor M4 (Homo sapiens). As to the kind of experiment: Logarithm of affinity (log 1/M) at the muscarinic acetylcholine receptor M4 by using semiquantitative equilibrium and off-rate assay.
Test [12] addresses T2, Muscarinic acetylcholine receptor M1 (Homo sapiens). As to the kind of experiment: Logarithm of affinity (log 1/M) at the free muscarinic acetylcholine receptor M1 by using semiquantitative equilibrium and off-rate assay.
In test [13] the target is Muscarinic acetylcholine receptor M3 (Homo sapiens) (UniProt P20309). As to the kind of experiment: Subtype selectivity and the cooperativity with N-methyl Scopolamine (NMS) at muscarinic acetylcholine receptor M3; Activity range is 0.2-0.8.
Test [14] concerns the target T1, Muscarinic acetylcholine receptor M4 (Homo sapiens). As to the kind of experiment: Subtype selectivity and cooperativity with N-methyl Scopolamine (NMS) at Muscarinic acetylcholine receptor M4; Activity range is 1.2-3.
In test [15] the target is T3, Muscarinic acetylcholine receptor M2 (Homo sapiens). As to the kind of experiment: Subtype selectivity and the cooperativity with N-methyl Scopolamine (NMS) at Muscarinic acetylcholine receptor M2; Activity range is 0.81-1.19.
The target of test [16] is T2, Muscarinic acetylcholine receptor M1 (Homo sapiens). As to the kind of experiment: Subtype selectivity and the cooperativity with N-methyl Scopolamine (NMS) at Muscarinic acetylcholine receptor M1; Activity range is 0.2-0.8.
Test [17] has as its target T1, Muscarinic acetylcholine receptor M4 (Homo sapiens). As to the kind of experiment: Subtype selectivity and the cooperativity with N-methyl Scopolamine (NMS) at Muscarinic acetylcholine receptor M4; Activity range is 0.81-1.19.
Test [18] concerns the target T2, Muscarinic acetylcholine receptor M1 (Homo sapiens). As to the kind of experiment: Subtype selectivity and the cooperativity with N-methyl Scopolamine (NMS) at Muscarinic acetylcholine receptor M1; Activity range is 0.81-1.19.
The target in test [19] is Muscarinic acetylcholine receptor M3 (Homo sapiens) (UniProt P20309). As to the kind of experiment: Subtype selectivity and the cooperativity with N-methyl Scopolamine (NMS) at Muscarinic acetylcholine receptor M3; […].
In test [20] the target is T3, Muscarinic acetylcholine receptor M2 (Homo sapiens). As to the kind of experiment: Subtype selectivity and the cooperativity with N-methyl Scopolamine (NMS) at Muscarinic acetylcholine receptor M2; activity range is 1.2-3.
Test [21] concerns the target T2, Muscarinic acetylcholine receptor M1 (Homo sapiens). As to the kind of experiment: Subtype selectivity and the cooperativity with N-methyl Scopolamine (NMS) at Muscarinic acetylcholine receptor M1; Activity range is 1.81-1.19.
Test [22] has as its target T3, Muscarinic acetylcholine receptor M2 (Homo sapiens). As to the kind of experiment: Subtype selectivity and the cooperativity with N-methyl Scopolamine (NMS) at Muscarinic acetylcholine receptor M2; Activity range is 1.2-3.
In test [23] the target is T1, Muscarinic acetylcholine receptor M4 (Homo sapiens). As to the kind of experiment: Subtype selectivity and the cooperativity with N-methyl Scopolamine (NMS) at Muscarinic acetylcholine receptor M4; Activity range is 1.2-3.
Test [24] concerns the target Muscarinic acetylcholine receptor M3 (Homo sapiens) (UniProt P20309). As to the kind of experiment: Subtype selectivity and the cooperativity with N-methyl Scopolamine (NMS) at Muscarinic acetylcholine receptor M3.
Test [25] has as its target T2, Muscarinic acetylcholine receptor M1 (Homo sapiens). As to the kind of experiment: Subtype selectivity and the cooperativity with N-methyl Scopolamine (NMS) at Muscarinic acetylcholine receptor M1.
Test [26] shares this target. As to the kind of experiment: Subtype selectivity and the cooperativity with N-methyl Scopolamine (NMS) at Muscarinic acetylcholine receptor M1 Activity range is 0.2-0.8.
Test [27] addresses T1, Muscarinic acetylcholine receptor M4 (Homo sapiens). As to the kind of experiment: Subtype selectivity and the cooperativity with N-methyl Scopolamine (NMS) at Muscarinic acetylcholine receptor M4; Activity range is 081-1.19.
Test [28] shares this target. As to the kind of experiment: Subtype selectivity and the cooperativity with N-methyl Scopolamine (NMS) at Muscarinic acetylcholine receptor M4; Activity range is 0.2-0.8.

Muscarinic acetylcholine receptor M3 (Homo sapiens), sequence (P20309 whole entry, looked up): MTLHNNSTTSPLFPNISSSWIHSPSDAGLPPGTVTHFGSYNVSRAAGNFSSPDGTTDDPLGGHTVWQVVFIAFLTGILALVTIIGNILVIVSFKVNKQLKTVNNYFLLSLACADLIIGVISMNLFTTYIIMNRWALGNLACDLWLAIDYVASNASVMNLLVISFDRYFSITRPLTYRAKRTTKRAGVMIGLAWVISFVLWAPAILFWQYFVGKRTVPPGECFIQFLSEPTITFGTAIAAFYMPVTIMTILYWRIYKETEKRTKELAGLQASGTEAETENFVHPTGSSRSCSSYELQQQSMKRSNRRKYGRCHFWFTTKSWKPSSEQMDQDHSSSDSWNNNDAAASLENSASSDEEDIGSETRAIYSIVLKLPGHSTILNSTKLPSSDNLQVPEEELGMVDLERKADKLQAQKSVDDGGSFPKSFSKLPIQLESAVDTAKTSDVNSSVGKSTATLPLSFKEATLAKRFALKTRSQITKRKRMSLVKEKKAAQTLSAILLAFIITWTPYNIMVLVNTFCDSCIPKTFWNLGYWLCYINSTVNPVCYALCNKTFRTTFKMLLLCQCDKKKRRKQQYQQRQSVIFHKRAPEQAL

On to `COc1cc2c3c4c(c(COC(C)=O)c5c3n(c2cc1OC)C(=O)CC5)CNCC4`, for which the Cooperativity in [1] is greater than 3; in test [3], greater than 3; in test [4], 1.19; in [8], 1.19. Moreover, the Log 1/M in test [2] worked out at 6.16; in test [5] it was 5.85; in test [6] it was 5.69; in [7], 6.55; in test [9], 6.63; in test [10], 7.21. Further, the Log 1/M in test [11] came to 5.91; in test [12], 6.09.
As for `COc1cc2c(c(OC)c1OC)c1c3c(cc4c1n2C(=O)CC4)CNCC3`, the Log 1/M in test [2] stood at 6.52; in test [5], 5.33; in test [6], 5.63; in test [7], 6.21; in [9], 6.69; in test [10], 6.67. For the same molecule, the results for the Log 1/M in test [11] and in [12] were 5.97 and 6.74, respectively. In addition, the Cooperativity in [13] amounted to 0.8; in [14], 3; in test [15], 1.19; in test [16], 0.8.
Turning to `O=C1CCc2cc3c(c4c5ccc(O)cc5n1c24)CNCC3`, the Log 1/M in [2] is 6.13; in [5], 5.23; in [6] it was 5.6; in [7], 5.65; in test [9], 5.6; in test [10] it was 5.64. Moreover, the Log 1/M in test [11] was 5.52; in test [12] it was 6.59. The Cooperativity in test [13] stood at 0.8; in test [15], 1.19; in test [16] it was 0.8; in [17], 1.19.
Regarding `O=C1CCc2cc3c(c4c5cc(Cl)ccc5n1c24)CCNC3`, the Cooperativity in [1] was greater than 3; in test [3] it was greater than 3; in [18], 1.19; in [19], 1.19. The Log 1/M in test [2] was 5.58; in [5] it was 5.23; in test [6], 5.16; in test [7], 6.14; in test [9] it was 5.93; in [10], 6.54. The figures for the Log 1/M in [11] and in [12] were 5.61 and 5.66, respectively.
In the case of `O=C1CCc2cc3c(c4c5cc(O)ccc5n1c24)CNCC3`, the Log 1/M was found to be 6.07 in [2]; 5.12 in test [5]; 5.13 in test [6]; 5.9 in test [7]; 5.66 in test [9]; 5.81 in test [10]. Besides, the results for the Log 1/M in test [11] and in [12] were 5.56 and 6.04, respectively. Further, the Cooperativity in test [14] amounted to 3; in test [19], 1.19; in test [20], 3; in test [21] it was 1.19.
For the molecule `COc1cc2c3c4c(cc5c3n(c2cc1OC)C(=O)CC5)CNCC4`, the Log 1/M turned out to be 5.81 in test [2]; 5.15 in test [5]; 5.2 in test [6]; 6.05 in [7]; 6.15 in [9]; 6.47 in test [10]. For the same molecule, the Log 1/M in [11] turned out to be 4.8; in [12], 6.05. The Cooperativity came to 1.19 in [19], 0.8 in test [16], 3 in test [22] and 3 in test [23].
As to `O=C1CCc2cc3c(c4c5cc(O)ccc5n1c24)CCNC3`, the Cooperativity in test [1], in test [3], in [24] and in [25] was greater than 3 throughout. In addition, the Log 1/M in test [2] came to 6.07; in [5], 5.47; in [6], 4.89; in [7], 6.05; in test [9] it was 5.61; in test [10] it was 6.25. For the same molecule, the results for the Log 1/M in test [11] and in test [12] were 5.65 and 5.79, respectively.
With `COc1cccc2c1c1c3c(cc4c1n2C(=O)CC4)CNCC3`, the Log 1/M in test [2] amounted to 5.95; in [5], 5.52; in test [6], 5.58; in [7], 6.26; in test [9] it was 6.43; in test [10] it was 6.7. Further, the Log 1/M in [11] was found to be 6.25; in test [12], 6.5. The Cooperativity in test [19] worked out at 1.19; in test [22] it was 3; in test [17], 1.19; in [26], 0.8.
For `COc1ccc2c(c1)c1c3c(cc4c1n2C(=O)CC4)CCNC3`, the Log 1/M in test [2] was found to be 5.91; in test [5], 4.76; in test [6] it was 5.21; in [7], 5.74; in test [9] it was 5.87; in test [10], 6.05. The Log 1/M in test [11] was 5.71; in test [12] it was 6.1. The Cooperativity stood at 0.8 in [13], 0.8 in test [16], 3 in [22] and 1.19 in [27].
For `O=C(c1ccc2c(c1)c1c3c(cc4c1n2C(=O)CC4)CNCC3)N1CCOCC1`, the Log 1/M in test [2] amounted to 4.7; in test [5] it was 3.57; in test [6] it was 4.45; in [7], 4.54; in test [9] it was 4.71; in test [10], 5.21. The Log 1/M was 5.14 in [11] and 5.1 in [12]. Further, the Cooperativity is greater than 3 in test [3], 0.8 in [28], less than 0.2 in test [24] and less than 0.2 in [25].
